Data set [1] can be described thus: Aqueous solubility. The following applies: result in words. In kind it is physicochemical.
A short description of data set [2]: Stability testing in PBS. The following applies: result in words, relative to unmodified ADH-1.
Data set [3] is described as follows: Stability testing in human whole blood. The following applies: for stability in whole blood: human whole blood, result in words, relative to unmodified ADH-1.
For data set [4] the following is noted: humans, following i.v. administration; cited from earlier work.

*1 amine or outer side, *2 acyl side, *3 side chain or, on linkers, in order; H or OH if unused. Where a SMILES comes first, the peptide text is derived from it. Bridges are numbered along the chain shown (N, C = ends). [ ]: non-standard residue; d: D form. Phe(4-yl) = O=C([C@H](Cc1ccc([*:3])cc1)N[*:1])[*:2]

For `CC(=O)N[C@H]1CSCc2cccc(c2)CSC[C@@H](C(N)=O)NC(=O)[C@H](C(C)C)NC(=O)[C@H](C)NC(=O)[C@H](Cc2c[nH]cn2)NC1=O` [ADH100705-T], the aqueous solubility result in data set [1] is on record as “relatively low”. Besides, the “stability in PBS” value in data set [2] is recorded as “much less so”. Besides, in data set [3], the “stability in whole blood” value is on record as “much less so”.

With `CC(=O)N[C@H]1CSCC(=O)CSC[C@@H](C(N)=O)NC(=O)[C@H](C(C)C)NC(=O)[C@H](C)NC(=O)[C@H](Cc2c[nH]cn2)NC1=O` [ADH100706-T], the “stability in PBS” value in data set [2] is reported as “failed to result in improved stability”. Also, the “stability in whole blood” value in data set [3] was “failed to result in improved stability”.

On to `CC(=O)NC1CSCc2ccccc2CSCC(C(N)=O)NC(=O)[C@H](C(C)C)NC(=O)[C@H](C)NC(=O)[C@H](Cc2c[nH]cn2)NC1=O` (stereo partly drawn) [ADH100710-T, 8R, 11S, 14S, 17S, 20R 20-Acetylamino-17-(1H-imidazol-4-ylmethyl)-11-isopropyl-14-methyl-10,13,16,19-tetraoxo-5,7,8,10,11,12,13,14,15,16,17,18,19,20,21,23-hexadecahydro-9H-6,22-dithia-9,12,15,18-tetraaza-benzocyclohenicosene-8-carboxylic acid amide], for which, in data set [2], the “stability in PBS” value is on record as “stable”. Also, the “stability in whole blood” value in data set [3] was “stable”.

On to `CC(=O)N[C@H]1CSC[C@H](O)CSC[C@@H](C(N)=O)NC(=O)[C@H](C(C)C)NC(=O)[C@H](C)NC(=O)[C@H](Cc2c[nH]cn2)NC1=O` [ADH-100712-T], for which, in data set [2], the “stability in PBS” value is “stable”. In addition, the “stability in whole blood” value in data set [3] is on record as “failed to show improved stability”.

In the case of `CC(=O)N[C@H]1Cc2ccc(cc2)SC[C@@H](C(N)=O)NC(=O)[C@H](C(C)C)NC(=O)[C@H](C)NC(=O)[C@H](Cc2c[nH]cn2)NC1=O` [ADH-100716-T, 4R, 7S, 10S, 13S, 16S 16-Acetylamino-13-(1H-imidazol-4-ylmethyl)-7-isopropyl-10-methyl-6,9,12,15-tetraoxo-2-thia-5,8,11,14-tetraaza-bicyclo[16.2.2]docosa 1(21), 18(22), 19-triene-4-carboxylic acid amide] (Ac-[Phe(4-yl)]HAVC-NH2; thioether 1-5), in data set [3], the “stability in whole blood” value is “improved blood stability”.

`CC(=O)NC1CSCC(O)CSCC(C(N)=O)NC(=O)[C@H](C(C)C)NC(=O)[C@H](C)NC(=O)[C@H](Cc2c[nH]cn2)NC1=O` (stereo partly drawn) [ADH100713-T, 3R, 6S, 9S, 12S, 15R 15-Acetylamino-19-hydroxy-12-(1H-imidazol-4-ylmethyl)-6-isopropyl-9-methyl-5,8,11,14-tetraoxo-1,17-dithia-4,7,10,13-tetraaza-cycloicosane-3-carboxylic acid amide]: the “stability in PBS” value in data set [2] is listed as “stable”. In addition, the “stability in whole blood” value in data set [3] is recorded as “stable”.

Broadly, the half-life is the time needed for the level to fall by half in the phase considered. `CC(=O)N[C@H]1CSSC[C@@H](C(N)=O)NC(=O)[C@H](C(C)C)NC(=O)[C@H](C)NC(=O)[C@H](Cc2c[nH]cn2)NC1=O` [ADH-1, N-Ac-CHAVC-NH2]: in data set [4], the circulating half-life is 2.5 h and the “excreted unchanged in the urine” value is 30%. In addition, the half-life in data set [3] (human, whole blood) is ~2 h.

The values are drawn from US20090131306A1, “CHEMICALLY MODIFIED CYCLIC PEPTIDES CONTAINING CELL ADHESION RECOGNITION (CAR) SEQUENCES AND USES THEREFOR” (ADHEREX TECHNOLOGIES, INC., priority 2007, published 2009).
